# Assay results as given in patent US8492329B2, “Bioactive peptides and methods of using same” (Compugen Ltd., priority 2007, dated 2013).
# No end group written: not given here.
# What was measured:
# [1] = system: untransfected CHO-K1 cells; assay: ACEA RT-CES cell impedance, untransfected CHO-K1 cells; type: cell-based; conditions: for effect on cell impedance (normalized cell index): P74C13V 10 uM, H2 Relaxin 1 uM, FIG. 11; for dose response activation (cell impedance): data not shown
# Description: ACEA RT-CES screen is a noninvasive and label-free assay for GPCRs that can be used with both engineered and nonengineered cell lines. The assay is based on using cell-electrode impedance to measure minute changes in cellular morphology as a result of ligand-dependent GPCR activation and is described in Naichen Yu, et al., Anal. Chem., 78 (1), 35-43, 2006. 10.1021/ac051695v S0003-2700(05)01695-1. The Rho family of small GTPases, which include Rho, Rac, and CDC42, are well-characterized effectors of oncogenes, growth factor and adhesion-mediated signaling pathways and are not classically thought of as being key effectors for GPCRs. Rho family GTPases participate in a number of cellular processes, the main one being regulation and maintenance of specific structures within the actin cytoskeleton framework. […] The current view of the actin cytoskeleton is that of a dynamic and plastic system that is a reflection and manifestation of the intracellular signaling and not simply a static structure designed to maintain cellular architecture. Since GPCRs couple to the actin cytoskeletal network and induce very defined morphological changes, it is possible to harness this information as a functional and biologically relevant readout for GPCRs.
# ACEA biosciences; has designed electronic cell sensor arrays embedded in the bottom of the well of microtiter plates that are capable of measuring minute changes in cell morphology. The electronic sensors measure changes in cell-substrate impedance as a result of the disruption of the ionic environment due to the presence of cell and cell morphology dynamics. The main advantages offered by using cell-substrate impedance and cell morphology as a readout are that both exogenously expressed and endogenous receptors can be assayed without the need for engineering the cell with promiscuous G proteins and reporters or labeling the cells with dyes. In addition, since the readout is noninvasive, multiple stimulations with the same ligand or different ligands can be performed to assess events such as desensitization and receptor cross-talk. Finally, another major aspect of using cell-substrate impedance and cell morphology as a readout is that potentially all GPCRs, regardless of the signaling pathways, can be functionally monitored.
# Peptides were synthesized by the solid phase peptide synthesis (SPPS) method, cleaved from the resin, and purified by RP-HPLC unless stated otherwise. […] Final purity of peptide was >90% as measured by RP-HPLC. […]
# Before the transfected cells were seeded, […] SFM F12-HAM medium were added to each well of the E-plates and background levels were recorded.
# Total cell number was calculated and cells were re-suspended in complete growth medium to cell concentration ranging from 0.3125×10^6/mL up to 0.4375×10^6/mL. […]
# GPR39 = target: T1, GPR39 (Homo sapiens, UniProt O43194); assay: ACEA RT-CES cell impedance, GPR39 transfected CHO-K1 cells; type: cell-based; conditions: P74C13V 10 uM, H2 Relaxin 1 uM, FIG. 12
# T1 construct: expressed in transfected cells; host or cells: CHO-K1 (transient, FuGENE6; pIRES-eGFP co-transfected)
# T1 sequence (O43194 1-453): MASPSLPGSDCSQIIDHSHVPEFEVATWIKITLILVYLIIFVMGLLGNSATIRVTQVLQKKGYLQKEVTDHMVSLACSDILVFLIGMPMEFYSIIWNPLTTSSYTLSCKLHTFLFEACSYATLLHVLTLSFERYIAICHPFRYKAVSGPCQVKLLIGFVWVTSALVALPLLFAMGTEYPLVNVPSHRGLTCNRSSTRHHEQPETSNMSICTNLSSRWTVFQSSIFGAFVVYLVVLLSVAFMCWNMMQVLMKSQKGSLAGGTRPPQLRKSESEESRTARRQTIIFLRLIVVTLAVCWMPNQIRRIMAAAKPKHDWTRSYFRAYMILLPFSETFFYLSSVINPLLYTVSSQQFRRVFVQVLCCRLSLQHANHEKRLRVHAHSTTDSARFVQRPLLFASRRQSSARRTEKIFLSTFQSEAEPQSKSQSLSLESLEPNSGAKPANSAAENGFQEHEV
# Description: ACEA RT-CES screen is a noninvasive and label-free assay for GPCRs that can be used with both engineered and nonengineered cell lines. The assay is based on using cell-electrode impedance to measure minute changes in cellular morphology as a result of ligand-dependent GPCR activation and is described in Naichen Yu, et al., Anal. Chem., 78 (1), 35-43, 2006. 10.1021/ac051695v S0003-2700(05)01695-1. The Rho family of small GTPases, which include Rho, Rac, and CDC42, are well-characterized effectors of oncogenes, growth factor and adhesion-mediated signaling pathways and are not classically thought of as being key effectors for GPCRs. […] Since GPCRs couple to the actin cytoskeletal network and induce very defined morphological changes, it is possible to harness this information as a functional and biologically relevant readout for GPCRs.
# ACEA biosciences; has designed electronic cell sensor arrays embedded in the bottom of the well of microtiter plates that are capable of measuring minute changes in cell morphology. […] The main advantages offered by using cell-substrate impedance and cell morphology as a readout are that both exogenously expressed and endogenous receptors can be assayed without the need for engineering the cell with promiscuous G proteins and reporters or labeling the cells with dyes. […]
substance,measurement,setting,value
GQKGQVGPPGAAVRRAYAAFSVGRRAYAAFSV-OH [Peptide P74C13V],effect on cell impedance (normalized cell index),[1],moderate effect
same,dose response activation (cell impedance),[1],no dose dependent activation but only a moderate activation of the highest concentrations
same,effect on cell impedance (normalized cell index),GPR39,moderate yet visible effect
"H2 Relaxin: H2 Relaxin (ACS), positive control, known ligand of LGR7 (RXFP1) [reference compound]",effect on cell impedance (normalized cell index),[1],moderate effect
same,dose response activation (cell impedance),[1],no dose dependent activation but only a moderate activation of the highest concentrations
same,effect on cell impedance (normalized cell index),GPR39,moderate yet visible effect
